Measured values from US9365553B2, “Heterocyclic compound and H1 receptor antagonist” (Aska Pharmaceutical Co., Ltd., priority 2010, dated 2016).

What was measured:
[1] = target: T1, rat H1 receptor (Rattus norvegicus, UniProt P31390); assay: Rat H1 receptor affinity test (Test Example 1); format: binding; settings: rat cerebrum membrane preparation, [3H]-pyrilamine 2 nmol/L
T1 construct: An H1 receptor membrane preparation was prepared from rat cerebrum; from tissue; host or cells: rat cerebrum
Description: An H1 receptor membrane preparation was prepared from rat cerebrum. […] To the resulting each sample, 50 μL of 8 nmol/L [^3H]-pyrilamine (manufactured by PerkinElmer) (final concentration: 2 nmol/L) was added and mixed. After the mixture was incubated at a room temperature for 30 minutes, the reaction solution was collected on a glass filter by a cell harvester (manufactured by Molecular Devices), and then the filter was washed with the incubation buffer. The glass filter was cut off and transferred in a vial. To the vial was added 5 mL of a scintillator (manufactured by National Diagnostics), and the mixture was shaken for not less than one hour. Thereafter, the radioactive concentration was measured by a liquid scintillation counter.

[2] = target: T2, human H1 receptor (Homo sapiens, UniProt P35367); assay: Human H1 receptor affinity test (Test Example 2); format: binding; settings: CHO cell membrane preparation expressing human H1 receptor, [3H]-pyrilamine 2 nmol/L
T2 construct: purchased; host or cells: CHO cells
Description: Chinese hamster ovarian cells (CHO cells) having human H1 receptor forcibly express were purchased and used as an H1 receptor membrane preparation. […] To the resulting each sample, 50 μL of 8 nmol/L [^3H]-pyrilamine (final concentration: 2 nmol/L) was added and mixed. […] The glass filter was cut off and transferred in a vial. To the vial was added 5 mL of a scintillator (manufactured by National Diagnostics), and the mixture was shaken for not less than one hour. Thereafter, the radioactive concentration was measured by a liquid scintillation counter.

[3] = tested on: histamine-induced skin reaction in rat; assay: Histamine-induced skin reaction test in rat (Test Example 3); format: in vivo; settings: oral, histamine 10 μg/0.1 mL/site intradermal, pigment area, read-out: Skin reaction test in rat ID50
Description: […] One hour after the administration, a 1% Evans Blue physiological saline solution (Tokyo Chemical Industry Co., Ltd.) was administered into the caudal vein in a dose of 5 mL/kg, and immediately histamine 10 μg/0.1 mL/site (manufactured by Wako Pure Chemical Industries, Ltd.) was intradermally administered into the dorsum. Thirty minutes after the administration, the rat was anesthetized with diethyl ether and then euthanized by cervical dislocation. The skin was ablated, and the major axis and minor axis of a spot of the pigment exuded into the skin were measured to calculate the area of the pigment.

[4] = tested on: mouse IgE-dependent ear edema model; assay: Inhibitory effects on mouse IgE-dependent ear edema model (Test Example 8); format: in vivo; settings: oral twice a day, dose a multiple of mouse ID50 (Dose column of Table E); for Inhibitory effects in each allergic reaction phase: Immediate phase: mouse ear swelling 1 hour after antigen; for Inhibitory effects in each allergic reaction phase: Late phase: mouse ear swelling 24 hours after antigen; for Inhibitory effects in each allergic reaction phase: Very late phase: mouse ear swelling 7 days after antigen;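 on all read-outs here: 5 or 10 times the mouse skin-reaction ID50 per dose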
Description: To each mouse, 0.25 mL of an anti-DNP-IgE antibody (manufactured by SIGMA-ALDRICH) was intravenously administered for passive sensitization. On the day following the administration, an antigen (DNFB solution; manufactured by Wako Pure Chemical Industries, Ltd.) was applied on the right ear to induce dermatitis (ear swelling). One hour, 24 hours and 7 days after the application of the antigen, the thickness of the right ear was measured by a thickness measuring apparatus (dial thickness gauge). […] The thickness of the right ear before the sensitization was measured beforehand; the inhibition rates of the swelling in immediate phase, late phase, and very late phase were calculated.

[5] = tested on: histamine-induced skin reaction in mouse; assay: Skin reaction test in mouse (Test Example 4); format: in vivo; settings: oral, histamine 3 μg/50 μL/site intradermal, pigment area, read-out: Skin reaction test in mouse ID50
Description: Each mouse was sheared the day before test and fasted overnight. A low, middle or high dose of each test compound suspended in a 0.5% (W/V) CMC-Na aqueous solution was orally administered to the mouse. One hour after the administration, a 1% Evans Blue physiological saline solution (Tokyo Chemical Industry Co., Ltd.) was administered into the caudal vein in a dose of 10 mL/kg, and immediately histamine 3 μg/50 μL/site was intradermally administered into the dorsum. Thirty minutes after the administration, the mouse was anesthetized with diethyl ether and then euthanized by cervical dislocation. The skin was ablated, and the major axis and minor axis of a spot of the pigment exuded into the skin were measured to calculate the area of the pigment.

T2 sequence (P35367 whole entry): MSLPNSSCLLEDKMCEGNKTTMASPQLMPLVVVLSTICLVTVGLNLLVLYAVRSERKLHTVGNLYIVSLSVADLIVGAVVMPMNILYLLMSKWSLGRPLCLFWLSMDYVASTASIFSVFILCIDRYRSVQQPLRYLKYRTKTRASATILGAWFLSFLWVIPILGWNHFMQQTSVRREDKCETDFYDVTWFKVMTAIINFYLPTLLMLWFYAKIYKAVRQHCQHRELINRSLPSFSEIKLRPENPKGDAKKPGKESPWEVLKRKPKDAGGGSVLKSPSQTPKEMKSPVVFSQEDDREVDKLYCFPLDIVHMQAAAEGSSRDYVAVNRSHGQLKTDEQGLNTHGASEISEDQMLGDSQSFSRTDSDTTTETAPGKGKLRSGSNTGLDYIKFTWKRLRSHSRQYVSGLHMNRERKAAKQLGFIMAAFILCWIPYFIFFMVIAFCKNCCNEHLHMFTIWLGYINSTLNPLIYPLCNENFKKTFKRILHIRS
T1 sequence (P31390 whole entry): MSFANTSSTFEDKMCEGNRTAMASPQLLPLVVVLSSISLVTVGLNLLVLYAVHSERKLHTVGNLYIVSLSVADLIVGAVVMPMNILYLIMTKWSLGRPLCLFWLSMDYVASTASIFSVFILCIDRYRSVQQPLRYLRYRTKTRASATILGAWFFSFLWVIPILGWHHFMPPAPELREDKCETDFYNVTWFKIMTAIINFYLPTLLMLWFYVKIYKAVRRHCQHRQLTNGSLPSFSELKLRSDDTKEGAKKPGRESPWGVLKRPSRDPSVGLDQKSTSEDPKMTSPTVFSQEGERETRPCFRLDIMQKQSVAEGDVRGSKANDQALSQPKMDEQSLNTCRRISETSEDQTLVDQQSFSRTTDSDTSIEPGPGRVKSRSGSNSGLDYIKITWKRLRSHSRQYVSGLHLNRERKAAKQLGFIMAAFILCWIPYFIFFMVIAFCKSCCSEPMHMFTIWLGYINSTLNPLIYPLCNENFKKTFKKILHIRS

Structure (SMILES) | IC50 [1] [nM] | IC50 [2] [nM] | further results
O=C(O)COCCN1CCN(C(c2ccccc2)c2ccc(Cl)cc2)CC1 (centres unmarked) [Cetirizine] | 88 | – | –
COc1ccc(C(OC2CCN(Cc3cccc(C(=O)O)n3)CC2)c2ccccc2)cc1 (centres unmarked) [Example 17] | 110 | – | –
O=C(O)c1cccc(CN2CCC(OC(c3ccccc3)c3ccc(F)cc3)CC2)n1 (centres unmarked) [Example 18] | 89 | – | ED50 [3]: 0.2 mg/kg
O=C(O)c1cccc(CN2CCC(OC(c3ccccc3)c3ccccc3F)CC2)n1 (centres unmarked) [Example 20] | 69 | 29 | –
O=C(O)c1cccc(CN2CCN(C(c3ccccc3)c3ccc(Cl)cc3)CC2)n1 (centres unmarked) [Example 23] | 36 | 30 | ED50 [3]: 1.8 mg/kg
O=C(O)c1cccc(CN2CCC(OC(c3ccccc3)c3cccc(F)c3)CC2)n1 (centres unmarked) [Example 25] | 12 | 22 | –
O=C(O)c1cccc(CN2CCC(OC(c3ccccc3)c3cccc(C(F)(F)F)c3)CC2)n1 (centres unmarked) [Example 26] | 83 | – | –
Cc1ccc(C(OC2CCN(Cc3cc(C(=O)O)ccn3)CC2)c2ccccc2)cc1 (centres unmarked) [Example 41] | 19 | 18 | –
O=C(O)c1ccc(CN2CCC(OC(c3ccccc3)c3ccc(Cl)cc3)CC2)o1 (centres unmarked) [Example 43] | 18 | 12 | –
O=C(O)c1nc(CN2CCC(OC(c3ccccc3)c3ccc(Cl)cc3)CC2)cs1 (centres unmarked) [Example 44] | 20 | – | –
Cc1ccc(C(OC2CCN(Cc3ccc(C(=O)O)o3)CC2)c2ccccc2)cc1 (centres unmarked) [Example 46] | 68 | – | –
O=C(O)c1cccc(CN2CCC(OC(c3ccc(F)cc3)c3cccc(F)c3)CC2)n1 (centres unmarked) [Example 49] | 89 | 17 | ED50 [3]: 1.5 mg/kg
O=C(O)c1ccnc(CN2CCC(OC(c3ccccc3)c3ccc(F)c(F)c3)CC2)c1 (centres unmarked) [Example 51] | – | 4.9 | ED50 [5]: 0.07 mg/kg
O=C(O)c1ccnc(CN2CCC(OC(c3ccc(F)cc3)c3cccc(F)c3)CC2)c1 (centres unmarked) [Example 52] | – | 6.7 | ED50 [5]: 0.1 mg/kg
COc1ccc(CN2CCC(OC(c3ccccc3)c3ccc(F)c(F)c3)CC2)nc1C(=O)O (centres unmarked) [Example 53] | – | 14 | –
O=C(O)c1cccc(CN2CCC(=C3c4ccc(Cl)cc4CCc4cccnc43)CC2)n1 [Example 68] | 40 | – | –
O=C(O)c1ccnc(CN2CCC(=C3c4ccccc4C=Cc4ccccc43)CC2)c1 [Example 72] | – | 8.9 | ED50 [5]: 0.06 mg/kg
O=C(O)c1cccc(CN2CCC(=C3c4ccccc4CCc4ccccc43)CC2)c1 [Example 74] | – | – | ED50 [3]: 2.1 mg/kg
O=C(O)c1cccc(CN2CCC(=C3c4ccccc4CCc4ccccc43)CC2)n1 [Example 75] | 67 | 23 | ED50 [3]: 1.2 mg/kg
O=C(O)c1cccc(CN2CCC(=C3c4ccccc4COc4ccccc43)CC2)n1 [Example 80] | – | 17 | –
O=C(O)c1cccc(CN2CCC(OC(c3ccc(F)cc3)c3ccccc3F)CC2)n1 (centres unmarked) [Example 86] | – | 16 | –
O=C(O)c1ccnc(CN2CCC(OC(c3ccc(F)cc3)c3ccccc3F)CC2)c1 (centres unmarked) [Example 87] | – | 21 | Inhibitory effects in each allergic reaction phase: Immediate phase [4]: ++ (++ Inhibitory rate 45 to 20%); Inhibitory effects in each allergic reaction phase: Late phase [4]: ++ (++ Inhibitory rate 45 to 20%); Inhibitory effects in each allergic reaction phase: Very late phase [4]: + (+ Inhibitory rate 19 to 10%); ED50 [5]: 0.06 mg/kg
O=C(O)c1cc(CN2CCC(OC(c3ccccc3)c3ccc(F)cc3)CC2)cs1 (centres unmarked) [Example 89] | – | 7.5 | –
O=C(O)c1ccnc(CN2CCC(OC(c3ccc(F)cc3)c3ccc(F)cc3)CC2)c1 [Example 124] | – | 8.4 | –
O=C(O)c1cccc(CN2CCN(C(c3ccccc3)c3ccc(F)cc3)CC2)n1 (centres unmarked) [Example 143] | – | 24 | –
O=C(O)c1ccnc(CN2CC[C@H](OC(c3ccc(F)cc3)c3ccc(F)cc3)C2)c1 [Example 154] | – | 13 | –
O=C(O)c1cccc(CN2CC[C@H](OC(c3ccc(F)cc3)c3ccc(F)cc3)C2)n1 [Example 155] | – | 10 | –

Second part, led by results:

IC50 [1] [nM] | IC50 [2] [nM] | Structure (SMILES) | further results
81 | 14 | O=C(O)c1ccc(CN2CCC(OC(c3ccccc3)c3ccccc3)CC2)o1 [Example 1, 5-(4-Benzhydryloxypiperidin-1-ylmethyl)furan-2-carboxylic acid] | –
55 | – | O=C(O)c1coc(CN2CCC(OC(c3ccccc3)c3ccccc3)CC2)n1 [Example 3] | –
39 | – | O=C(O)c1csc(CN2CCC(OC(c3ccccc3)c3ccccc3)CC2)n1 [Example 4] | –
38 | 11 | O=C(O)c1cc(F)cc(CN2CCC(OC(c3ccccc3)c3ccccc3)CC2)c1 [Example 6] | ED50 [3]: 0.6 mg/kg
8.2 | 9.2 | O=C(O)c1cccc(CN2CCC(OC(c3ccccc3)c3ccccc3)C2)n1 (centres unmarked) [Example 24] | –
31 | 8.9 | O=C(O)c1ccnc(CN2CCC(OC(c3ccccc3)c3ccccc3)CC2)c1 [Example 27] | Inhibitory effects in each allergic reaction phase: Immediate phase [4]: ++ (++ Inhibitory rate 45 to 20%); Inhibitory effects in each allergic reaction phase: Late phase [4]: ++ (++ Inhibitory rate 45 to 20%); Inhibitory effects in each allergic reaction phase: Very late phase [4]: ++ (++ Inhibitory rate 45 to 20%); ED50 [5]: 0.03 mg/kg
63 | – | O=C(O)c1cc(CN2CCC(OC(c3ccccc3)c3ccccc3)CC2)ccn1 [Example 29] | –
42 | 15 | O=C(O)c1cncc(CN2CCC(OC(c3ccccc3)c3ccccc3)CC2)c1 [Example 30] | –
61 | 15 | O=C(O)c1ccc(CN2CCC(OC(c3ccccc3)c3ccccc3)CC2)[nH]1 [Example 35, 5-(4-Benzhydryloxypiperidin-1-ylmethyl)-1H-pyrrole-2-carboxylic acid] | –
99 | – | O=C(O)c1nc(CN2CCC(OC(c3ccccc3)c3ccccc3)CC2)cs1 [Example 36] | –
1.2 | 26 | O=C(O)c1ccnc(CN2CCC(OC(c3ccccc3)c3cccc(F)c3)CC2)c1 (centres unmarked) [Example 40] | –
24 | 19 | O=C(O)c1ccnc(CN2CCC(OC(c3ccccc3)c3ccc(Cl)cc3)CC2)c1 (centres unmarked) [Example 42] | ED50 [3]: 1.8 mg/kg
– | 17 | O=C(O)c1cnn(CN2CCC(OC(c3ccccc3)c3ccccc3)CC2)c1 [Example 84] | –
– | 22 | O=C(O)c1ccc(CN2CCC(OC(c3ccccc3)c3ccc(F)cc3)CC2)cn1 (centres unmarked) [Example 85] | –
– | 21 | O=C(O)c1cncc(CN2CCC(OC(c3ccccc3)c3ccc(F)cc3)CC2)c1 (centres unmarked) [Example 88] | –
– | 17 | O=C(O)c1cccc(CN2CCC(OC(c3ccccc3)c3cccc(Cl)c3)CC2)n1 (centres unmarked) [Example 116] | –
– | 24 | O=C(O)c1ccnc(CN2CCC(OC(c3ccccc3)c3cccc(Cl)c3)CC2)c1 (centres unmarked) [Example 117] | –
– | 6.1 | O=C(O)c1cccc(CN2CC[C@@H](OC(c3ccccc3)c3ccccc3)C2)n1 [Example 128, 6-((R)-3-Benzhydryloxypyrrolidin-1-ylmethyl)pyridine-2-carboxylic acid] | –
– | 5.1 | O=C(O)c1cccc(CN2CC[C@H](OC(c3ccccc3)c3ccccc3)C2)n1 [Example 129, 6-((S)-3-Benzhydryloxypyrrolidin-1-ylmethyl)pyridine-2-carboxylic acid] | Inhibitory effects in each allergic reaction phase: Immediate phase [4]: ++ (++ Inhibitory rate 45 to 20%); Inhibitory effects in each allergic reaction phase: Late phase [4]: ++ (++ Inhibitory rate 45 to 20%); Inhibitory effects in each allergic reaction phase: Very late phase [4]: ++ (++ Inhibitory rate 45 to 20%); ED50 [5]: 0.04 mg/kg
– | 15 | O=C(O)c1ccnc(CN2CC[C@H](OC(c3ccccc3)c3ccccc3)C2)c1 [Example 131, 2-((S)-3-Benzhydryloxypyrrolidin-1-ylmethyl)isonicotinic acid] | –
